The values that follow come from US4943573A, “Imidazo[4,5-b]quinolinyloxyalkanoic acid amides with enhanced water solubility” (Bristol-Myers Squibb Company, priority 1989, dated 1990).

For data set [1], the system named is Biolaser-induced thrombosis / platelet aggregation in rabbit ear. As to the kind of experiment: in vivo inhibition of biolaser-induced platelet aggregation in the rabbit ear (Biolaser Model). The arrangement: species or system rabbit (English, half-lop). Conditions: for inhibition in vivo at 0.1 mg/kg: Oryctolagus cuniculus, Platelet, po, 0.1 mg/kg orally, 2 hours. As to the method:
Transparent ear chambers were chronically implanted in adult, English, half-lop rabbits. The animals were conditioned to lie quietly in a supine position. Localized microvascular injury was induced by focusing a single pulse ruby laser beam through a microscope into the lumen of a vessel […] in diameter. This evoked the formation of a small thrombus consisting of platelets accumulated around a core of one or two damaged red cells. Thrombi areas were determined using computerized planimetry. The mean thrombus area (μM^2) obtained for 10 trials in each rabbit served as the control value. Subsequently, the test compound was administered orally and 2 hours later a second series of laser-induced thrombi trials were performed. Drug activity was evaluated by comparing pre-and post-dose mean thrombus areas. Activity determined at other time points beyond 2 hours establish duration of action.

The subject of a further data set is ferrets. As to the kind of experiment: in vivo inotropic activity in anesthetized ferrets (hemodynamic parameters and right ventricular contractile force). Further details: species or system ferret. Conditions: for change in vivo at 3 mg/kg: Mustela putorius, intraduodenal, 1 h, 3 mg/kg intraduodenally, monitored 60 minutes. As to the method:
This test is […] out in ferrets as follows. Fasted anesthetized ferrets are instrumented to study hemodynamic parameters as well as right ventricular contractile force (RVCF) using a Walton-Brodie open strain gauge arch. Drugs are administered intraduodenally as solutions in DMSO (1 mL or less) and effects on myocardial contractile force and other parameters are monitored for 60 minutes after dosing. Changes in contractile force in response to drug treatment are expressed in terms of percent change from predose control.

The target in data set [2] is T1, cyclic AMP phosphodiesterase (PDE) enzyme obtained from human platelets (Homo sapiens, UniProt Q14432).
T1 construct: phosphodiesterase (PDE) enzyme obtained from human platelets; from tissue; host or cells: human platelets
T1 sequence (Q14432 whole entry): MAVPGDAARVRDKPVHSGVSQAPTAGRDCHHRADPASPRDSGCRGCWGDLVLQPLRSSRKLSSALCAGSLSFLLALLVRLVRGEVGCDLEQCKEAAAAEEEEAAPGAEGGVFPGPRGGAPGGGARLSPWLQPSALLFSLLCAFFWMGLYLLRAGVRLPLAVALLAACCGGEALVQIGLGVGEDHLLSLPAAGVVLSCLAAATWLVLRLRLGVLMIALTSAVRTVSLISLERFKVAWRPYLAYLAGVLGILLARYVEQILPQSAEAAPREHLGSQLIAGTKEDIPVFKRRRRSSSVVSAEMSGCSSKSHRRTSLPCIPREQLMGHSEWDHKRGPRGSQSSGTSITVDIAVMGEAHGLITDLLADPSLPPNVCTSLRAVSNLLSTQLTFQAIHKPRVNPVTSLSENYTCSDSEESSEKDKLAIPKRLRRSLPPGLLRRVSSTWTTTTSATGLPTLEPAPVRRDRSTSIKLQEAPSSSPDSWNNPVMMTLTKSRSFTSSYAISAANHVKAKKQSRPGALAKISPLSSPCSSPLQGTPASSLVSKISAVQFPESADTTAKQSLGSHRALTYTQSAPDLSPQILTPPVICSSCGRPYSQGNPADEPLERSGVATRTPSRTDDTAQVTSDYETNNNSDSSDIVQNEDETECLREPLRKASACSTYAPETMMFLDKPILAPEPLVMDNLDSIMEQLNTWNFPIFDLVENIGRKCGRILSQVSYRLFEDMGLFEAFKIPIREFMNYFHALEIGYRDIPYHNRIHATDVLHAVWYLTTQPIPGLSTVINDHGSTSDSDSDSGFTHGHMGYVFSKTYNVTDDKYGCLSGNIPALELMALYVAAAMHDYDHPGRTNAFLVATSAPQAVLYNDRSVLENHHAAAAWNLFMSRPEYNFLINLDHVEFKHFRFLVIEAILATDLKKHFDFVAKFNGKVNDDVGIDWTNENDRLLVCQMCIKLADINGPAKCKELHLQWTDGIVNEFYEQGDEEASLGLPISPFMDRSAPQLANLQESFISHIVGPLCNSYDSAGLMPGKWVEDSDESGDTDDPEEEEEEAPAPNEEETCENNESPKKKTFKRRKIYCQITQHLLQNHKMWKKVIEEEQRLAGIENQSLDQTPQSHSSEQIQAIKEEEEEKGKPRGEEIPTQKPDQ
Kind of data set: inhibition of cyclic AMP phosphodiesterase. The data set is classed as biochemical. The following applies: human platelet PDE. As to the method:
This assay is carried out essentially as described by Thompson, et al., Methods in Enzymology, 38, […] (1974). Briefly, tritium labeled cyclic adenosine monophosphate (cAMP) is incubated with a phosphodiesterase (PDE) enzyme obtained from human platelets which converts a portion of the cAMP to 5'AMP in culture tubes. This reaction is terminated by submerging the tubes in a boiling water bath after which they are placed on ice and an aliquot of snake venom is added to each tube. This, during a second incubation, converts the 5'AMP to adenosine. Ion exchange resin is added to bind the remaining cyclic AMP. The tubes are centrifuged to sediment the resin and a portion of the clear supernatent (which contains radioactive adenosine) is counted in a liquid scintillation counter. The cAMP phosphodiesterase inhibition activity of a test agent is determined by pre-incubating the PDE enzyme preparation with the test agent. Dose response values are obtained and activity of the test agent reported as the molar (M) concentration of the test agent inhibition 50% of the PDE activity (IC50 s).

A further data set in a line: solubility. The data set is classed as physicochemical.
Data set [3] relates to ADP-induced platelet aggregation. As to the kind of experiment: in vitro inhibition of ADP-induced platelet aggregation (aggregometer method of Born, platelet rich plasma). The following applies: human platelet rich plasma; ADP 2.5 mcg/ml; as the dihydrochloride salt; read-out: EC50 versus ADP (inhibition of ADP-induced platelet aggregation). It is filed as cell-based. As to the method: The aggregometer method of Born^1, as modified by Mustard, et al.^2 was used to assess the in vitro activity of the various compounds as to inhibition of adenosine diphosphate (ADP) and collagen-induced platelet aggregation. Platelet rich plasma (PRP) was separated by centrifugation from citrated (3.8 percent) human blood. ADP in final concentration of 2.5 mcg/ml or 0.05 ml of a collagen suspension prepared according to the method described by Evans, et al.^3 was used to induce aggregation. The various Evans, et al. compounds tested were dissolved in dimethylsulfoxide (DMSO) so that 5 mcl added to the platelet rich plasma would yield the desired test concentration. Vehicle control trials were done and compared with aggregation induced in platelet rich plasma containing various concentrations of the test compounds. Dose response curves were thus obtained and Effective Concentration (EC50) values calculated.

The mark [4] stands for this setting: change from predose control, read-out: Ferret, Maximum % Change, VCF (ventricular contractile force).
[5] abbreviates: read-out: Ferret, Maximum % Change, HR (heart rate).
Setting [6] is: read-out: Ferret, Maximum % Change, MAP (mean arterial blood pressure).
Where [7] appears, read: Table I, read-out: cAMP PDE IC50 (m).

Each structure is given as a SMILES string. Where two headings read alike, the source gives them in different places. A value given as a limit tells only on which side of the number the result lay.

Turning to `O=C(CCCOc1ccc2nc3[nH]c(=O)[nH]c3cc2c1)N1CCN(C2CCCCCC2)CC1` [Example 25, 1-Cycloheptanyl-4-[4-(2,3-dihydro-2-oxo-1H-imidazo[4,5-b]quinolin-7-yloxy)-1-oxobutyl]piperazine], in data set [1] (rabbit), at 0.1 mg/kg the inhibition in vivo was 49%. Also, the change in vivo at 3 mg/kg with ferrets (setting [4]) was 26%; in the data set on ferrets (setting [5]) it was 17%; with ferrets (setting [6]), -12%. In addition, the IC50 in data set [2] (setting [7]) came out at 0.9 nM.
Turning to `Cc1[nH]c(=O)c(C#N)cc1-c1ccncc1` [milrinone, reference compound], the “increase in RVCF (right ventricular contractile force)” value with ferrets (3 mg/kg, ferret) is 52%.
With `O=C(CCCOc1ccc2nc3[nH]c(=O)[nH]c3cc2c1)N1CCN(Cc2ccc(F)cc2)CC1` [Example 13], the inhibition in vivo at 0.1 mg/kg in data set [1] (rabbit) turned out to be 46%. The change in vivo at 3 mg/kg with ferrets (setting [4]) was 32%; in the data set on ferrets (setting [5]) it was 21%; in the data set with ferrets (setting [6]) it was -11%. In addition, in data set [2] (setting [7]), the IC50 was determined as 2 nM.
The like results for `O=C(CCCOc1ccc2nc3[nH]c(=O)[nH]c3cc2c1)N1CCN(Cc2cccs2)CC1` [Example 16, 1-[4-(2,3-Dihydro-2-oxo-1H-imidazo[4,5-b]quinolin-7-yloxy)-1-oxobutyl]-4-(2-thienylmethyl)piperazine] were, in that order, 49%, 30%, 16%, -27% and 0.7 nM.
The like results for `O=C(CCCOc1ccc2nc3[nH]c(=O)[nH]c3cc2c1)N1CCN(Cc2cccc(C(F)(F)F)c2)CC1` [Example 14, 1-[4-(2,3-Dihydro-2-oxo-1H-imidazo[4,5-b]quinolin-7-(yloxy)-1-oxobutyl]-4-[[3-trifluormethyl)phenyl-]methyl]piperazine] were, in that order, 49%, 3%, 12%, -16% and 9 nM.
Take `O=C(CCCOc1ccc2nc3[nH]c(=O)[nH]c3cc2c1)N1CCN(c2ccccc2)CC1` [1-[4-[(2,3-dihydro-2-oxo-1H-imidazo[4,5-b]-quinolin-7-yl)oxy]-1-oxobutyl]-4-phenylpiperazine, reference compound]: the “activity in Biolaser Model relative to Table I compounds” value in data set [1] (0.3 mg/kg body weight, compared with Table I compounds) is listed as “markedly less active than Table I compounds”. Further, the “inhibition in Biolaser Model” value in data set [1] (0.3 mg/kg body weight, rabbit) turned out to be 22%. The solubility is under 10 µg/mL in “solubility” (2.0n hcl, read-out: solubility in 2.0N HCl) and under 10 µg/mL in “solubility” (water, read-out: solubility in water).
`O=C(CCCOc1ccc2nc3[nH]c(=O)[nH]c3cc2c1)N1CCN(Cc2ccccc2)CC1` [Example 11]: in data set [1] (rabbit), the inhibition in vivo at 0.1 mg/kg amounted to 50%. The figures for the change in vivo at 3 mg/kg in the data set with ferrets (setting [4]), with ferrets (setting [5]) and in the data set on ferrets (setting [6]) were 28%, 31% and -42%, respectively. Also, in data set [2] (setting [7]), the IC50 came out at 0.7 nM.
The like results for `O=C(CCCOc1ccc2nc3[nH]c(=O)[nH]c3cc2c1)N1CCN(c2ccccn2)CC1` [Example 19] were, in that order, 47%, -8%, 12%, -15% and 5 nM.
As for `COc1ccc(CN2CCN(C(=O)CCCOc3ccc4nc5[nH]c(=O)[nH]c5cc4c3)CC2)cc1` [Example 15], the inhibition in vivo at 0.1 mg/kg in data set [1] (rabbit) turned out to be 48%. Also, the change in vivo at 3 mg/kg with ferrets (setting [4]) was 24%; in the data set on ferrets (setting [5]), 17%; in the data set with ferrets (setting [6]) it was -23%. Besides, the IC50 in data set [2] (setting [7]) was 3 nM.
As for `O=C(CCCOc1ccc2nc3[nH]c(=O)[nH]c3cc2c1)N1CCN(CC2CCCCC2)CC1` [Example 22, 1-(Cyclohexylmethyl)-4-[4-(2,3-dihydro-2-oxo-1H-imidazo[4,5-b]quinolin-7-yloxy)-1-oxybutyl]piperazine], the inhibition in vivo at 0.1 mg/kg in data set [1] (rabbit) is 59%. In addition, the change in vivo at 3 mg/kg in the data set with ferrets (setting [4]) is 27%; with ferrets (setting [5]), 29%; with ferrets (setting [6]), -15%. The IC50 in data set [2] (read-out: IC50, cAMP phosphodiesterase inhibition) is 0.4 nM. Also, the EC50 in data set [3] was found to be 910 nM.

One may read the inhibition in vivo as the relative decrease from the control value, in per cent. The IC50 is the concentration needed to halve the response being measured. By solubility is commonly meant how much of the substance goes into solution per volume. The term EC50 denotes the midpoint of the concentration-response curve.
